Laboratory results: US11566017B2, “Dihydroquinazolinone compound or pharmacologically acceptable salt, and cell growth inhibitor” (RIKEN, priority 2017, dated 2023)

Key:
[1] = test system: tubulin (microtubule polymerization); assay: Microtubule polymerization inhibition test (fluorescence kit BK011P); format: biochemical; settings: 60 min
Method: Using a microtubule polymerization reaction measurement kit (Cytoskeleton Inc.; BK011P), the microtubule polymerization inhibitory activity of the compound (test compound) prepared in each of Examples was evaluated on the basis of the standard protocol of the kit. Solutions with concentrations of 30 μM and 150 μM were prepared by dissolving the test compound in DMSO, and used as test compound solutions (with final concentrations of 3 μM and 15 μM, respectively). DMSO was used as a negative control solution, and vincristine (final concentration: 3 μM) was used as a positive control solution.
5 μL of the test compound solution or each control solution, and 50 μL of a microtubule-containing reaction mixture (1×Buffer 1; 1 mM GTP; 15% glycerol; and tubulin with a concentration of 2 mg/mL) were added to a 96-well plate (Corning Costar Company; #3686) warmed to 37° C., and a change in fluorescence of the reaction solution was measured over 1 hour. A higher fluorescence intensity means a higher degree of progression of polymerization of microtubules. The composition of Buffer 1 and the fluorescence measurement conditions employed in the analysis are shown below.
80 mM Piperazine-N,N′-bis[2-ethanesulfonic acid] sequisodium salt; 2.0 mM Magnesium chloride; 0.5 mM Ethylene glycol-bis (β-amino-ethyl ether)N,N,N′,N′-tetra-acetic acid; 10 μM fluorescent reporter
Measurement wavelength: 360 nm (excitation wavelength) and 450 nm (emission wavelength)
Measurement time: 60 min (1 cycle/min)
Equipment used: Microplatereader SpectraMax M2 (Molecular Devices Company)

[2] = test system: human colorectal cancer cell line COLO-320DM; assay: Cell proliferation inhibitory activity test (Celltiter-Glo); format: cell-based; settings: COLO-320DM cells, 96 hours
tankyrase 1 (TNKS1) = target: T1, tankyrase 1 (TNKS1) (Homo sapiens, UniProt O95271); assay: Tankyrase inhibitory activity test (ELISA, auto-poly(ADP-ribosyl)ation), tankyrase 1; format: biochemical; settings: Flag tagged tankyrase 1 (1,024-1,327aa, SAM+PARP); read-out: TNKS1 (inhibitory activity against tankyrase 1, IC50)
T1 construct: tankyrase 1 (1,024-1,327aa, SAM+PARP); made in house; host or cells: cell-free protein expression system
Summary of the method: (§1)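 Cell-free-expressed Flag-tagged TNKS1 (1,024-1,327aa, SAM+PARP) or TNKS2 (613-1,116aa, ANK5+SAM+PARP) was captured on anti-FLAG plates and pre-incubated 10 min at RT with compound (pH 8.0, MgCl2, DTT). Auto-PARylation was started with NAD solution (225 μM NAD, 25 μM biotin-NAD), 45 min at 30 °C. Detection by HRP-streptavidin chemiluminescence; IC50 from residual activity.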

tankyrase 2 (TNKS2) = target: T2, tankyrase 2 (TNKS2) (Homo sapiens, UniProt Q9H2K2); assay: Tankyrase inhibitory activity test (ELISA, auto-poly(ADP-ribosyl)ation), tankyrase 2; format: biochemical; settings: Flag tagged tankyrase 2 (613-1,116aa, ANK5+SAM+PARP); read-out: TNKS2 (inhibitory activity against tankyrase 2, IC50)
T2 construct: tankyrase 2 (613-1,116aa, ANK5+SAM+PARP); made in house; host or cells: cell-free protein expression system
Summary of the method: as §1

[3] = racemates, 3 μM (FIG. 1A) and 15 μM (FIG. 1B)

T1 sequence (O95271 1024-1327): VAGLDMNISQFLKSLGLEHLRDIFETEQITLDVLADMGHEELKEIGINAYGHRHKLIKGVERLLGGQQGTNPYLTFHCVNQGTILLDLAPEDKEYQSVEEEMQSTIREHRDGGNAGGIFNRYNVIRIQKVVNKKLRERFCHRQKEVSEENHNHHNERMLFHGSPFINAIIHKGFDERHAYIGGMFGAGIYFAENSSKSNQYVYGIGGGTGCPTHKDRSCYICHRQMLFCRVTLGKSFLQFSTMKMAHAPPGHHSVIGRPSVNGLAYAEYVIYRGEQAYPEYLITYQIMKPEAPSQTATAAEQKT

Row | SMILES | GI50 [2] [nM] | IC50 (tankyrase 1 (TNKS1)) [nM] | IC50 (tankyrase 2 (TNKS2)) [nM] | microtubule polymerization: increase in fluorescence intensity [1, 3] | microtubule polymerization: increase in fluorescence intensity ([1]; positive control, final concentration 3 μM)
1 | COc1ccc(-c2n[nH]nc2C2NC(=O)c3cccc(O)c3N2)cc1 (stereo not shown) [Example 67, 8-Hydroxy-2-[5-(4-methoxyphenyl)-2H-1,2,3-triazol-4-yl]-2,3-dihydro-1H-quinazolin-4-one] | ≥ 10000 | 5 to 20 | 5 to 20 | – | –
2 | Cc1cccc2c1NC(c1n[nH]nc1-c1ccc(OC(F)F)cc1)NC2=O (stereo not shown) [Example 73, 2-[4-[4-(Difluoromethoxy)phenyl]-2H-1,2,3-triazol-5-yl]-8-methyl-2,3-dihydro-1H-quinazolin-4-one] | ≥ 10000 | 20 to 50 | 20 to 50 | – | –
3 | CCOC(=O)COc1ccc(-c2n[nH]nc2C2NC(=O)c3cccc(C)c3N2)cc1 (stereo not shown) [Example 79] | ≥ 10000 | 5 to 20 | 5 to 20 | – | –
4 | CCc1cccc2c1NC(c1n[nH]nc1-c1ccc(OC)cc1)NC2=O (stereo not shown) [Example 81, 8-Ethyl-2-[4-(4-methoxyphenyl)-2H-1,2,3-triazol-5-yl]-2,3-dihydro-1H-quinazolin-4-one] | 1000 to 10000 | 5 to 20 | < 5 | – | –
5 | COc1ccc(-c2n[nH]cc2C2NC(=O)c3ccccc3N2)cc1 (stereo not shown) [Example 82, 2-[5-(4-Methoxyphenyl)-1H-pyrazol-4-yl]-2,3-dihydro-1H-quinazolin-4-one] | ≥ 10000 | 5 to 20 | 5 to 20 | – | –
6 | COc1ccc(-c2n[nH]cc2C2NC(=O)c3ccccc3N2C)cc1 (stereo not shown) [Example 83, 2-[5-(4-Methoxyphenyl)-1H-pyrazol-4-yl]-1-methyl-2,3-dihydroquinazolin-4-one] | 1000 to 10000 | 5 to 20 | 5 to 20 | – | –
7 | O=C1NC(c2n[nH]nc2-c2ccc(OCC(F)F)cc2)N2CCc3cccc1c32 (stereo not shown) [Example 84, 11-[5-[4-(2,2-Difluoroethoxy)phenyl]-2H-1,2,3-triazol-4-yl]-1,10-diazatricyclo[6.3.1.0^4,12]dodeca-4(12),5,7-trien-9-one] | ≥ 10000 | 5 to 20 | 5 to 20 | – | –
8 | COc1ccc(-c2c[nH]nc2C2NC(=O)c3ccccc3N2)cc1 (stereo not shown) [Example 85, 2-[4-(4-Methoxyphenyl)-1H-pyrazol-3-yl]-2,3-dihydro-1H-quinazolin-4-one] | 1000 to 10000 | 5 to 20 | < 5 | – | –
9 | COc1ccc(-c2c[nH]nc2C2NC(=O)c3ccccc3N2C)cc1 (stereo not shown) [Example 86, 2-[4-(4-Methoxyphenyl)-1H-pyrazol-3-yl]-1-methyl-2,3-dihydro-1H-quinazolin-4-one] | 1000 to 10000 | < 5 | < 5 | – | –
10 | COc1ccc(-c2c[nH]nc2C2NC(=O)c3cccc(C)c3N2)cc1 (stereo not shown) [Example 87, 2-[4-(4-Methoxyphenyl)-1H-pyrazol-3-yl]-8-methyl-2,3-dihydro-1H-quinazolin-4-one] | 1000 to 10000 | < 5 | < 5 | – | –
11 | CC[C@]1(O)C[C@H]2CN(CCc3c([nH]c4ccccc34)[C@@](C(=O)OC)(c3cc4c(cc3OC)N(C=O)[C@H]3[C@@](O)(C(=O)OC)[C@H](OC(C)=O)[C@]5(CC)C=CCN6CC[C@]43[C@@H]65)C2)C1 [vincristine, reference compound] | – | – | – | – | slower increase in fluorescence intensity as compared to the DMSO control

Continued, in another order:

Row | GI50 [2] [nM] | IC50 (tankyrase 1 (TNKS1)) [nM] | IC50 (tankyrase 2 (TNKS2)) [nM] | SMILES | microtubule polymerization: increase in fluorescence intensity [1, 3] | microtubule polymerization: increase in fluorescence intensity ([1]; positive control, final concentration 3 μM)
12 | < 1000 | 5 to 20 | < 5 | COc1ccc(-c2n[nH]nc2C2NC(=O)c3cccc(C)c3N2)cc1 (racemic) [Example 65, 2-[5-(4-Methoxyphenyl)-2H-1,2,3-triazol-4-yl]-8-methyl-2,3-dihydro-1H-quinazolin-4-one] | slower increase in fluorescence intensity as compared to the DMSO control | –
13 | 1000 to 10000 | 5 to 20 | 5 to 20 | COc1ccc(-c2n[nH]nc2C2NC(=O)c3cccc4c3N2CC4)cc1 (racemic) [Example 69, 11-[5-(4-Methoxyphenyl)-2H-1,2,3-triazol-4-yl]-1,10-diazatricyclo[6.3.1.0^4,12]dodeca-4(12),5,7-trien-9-one] | slower increase in fluorescence intensity as compared to the DMSO control | –
14 | < 1000 | 5 to 20 | < 5 | CCOc1ccc(-c2n[nH]nc2C2NC(=O)c3cccc(C)c3N2)cc1 (racemic) [Example 70, 2-[5-(4-Ethoxyphenyl)-2H-1,2,3-triazol-4-yl]-8-methyl-2,3-dihydro-1H-quinazolin-4-one] | slower increase in fluorescence intensity as compared to the DMSO control | –
15 | 1000 to 10000 | 5 to 20 | 5 to 20 | COc1ccc(-c2n[nH]nc2C2NC(=O)c3cccc4c3N2CCO4)cc1 (stereo not shown) [Example 68, 2-[5-(4-Methoxyphenyl)-2H-1,2,3-triazol-4-yl]-10-oxa-1,3-diazatricyclo[7.3.1.0^5,13]trideca-5,7,9(13)-trien-4-one] | – | –
16 | 1000 to 10000 | 20 to 50 | 20 to 50 | COc1ccc(-c2n[nH]nc2C2NC(=O)c3cccc(C(F)(F)F)c3N2)cc1 (stereo not shown) [Example 71, 2-[5-(4-Methoxyphenyl)-2H-1,2,3-triazol-4-yl]-8-(trifluoromethyl)-2,3-dihydro-1H-quinazolin-4-one] | – | –
17 | 1000 to 10000 | 5 to 20 | 5 to 20 | Cc1cccc2c1NC(c1n[nH]nc1-c1ccc(OCC(F)(F)F)cc1)NC2=O (stereo not shown) [Example 72, 8-Methyl-2-[4-[4-(2,2,2-trifluoroethoxy)phenyl]-2H-1,2,3-triazol-5-yl]-2,3-dihydro-1H-quinazolin-4-one] | – | –
18 | 1000 to 10000 | 5 to 20 | 5 to 20 | CCCOc1ccc(-c2n[nH]nc2C2NC(=O)c3cccc(C)c3N2)cc1 (stereo not shown) [Example 74, 8-Methyl-2-[5-(4-propoxyphenyl)-2H-1,2,3-triazol-4-yl]-2,3-dihydro-1H-quinazolin-4-one] | – | –
19 | 1000 to 10000 | 5 to 20 | 5 to 20 | CCOc1ccc(-c2n[nH]nc2C2NC(=O)c3cccc4c3N2CC4)cc1 (stereo not shown) [Example 75, 11-[5-(4-Ethoxyphenyl)-2H-1,2,3-triazol-4-yl]-1,10-diazatricyclo[6.3.1.0^4,12]dodeca-4(12),5,7-trien-9-one] | – | –
20 | 1000 to 10000 | 20 to 50 | 5 to 20 | Cc1cccc2c1NC(c1n[nH]nc1-c1ccc(OC(C)C)cc1)NC2=O (stereo not shown) [Example 76, 8-Methyl-2-[5-(4-propan-2-yloxyphenyl)-2H-1,2,3-triazol-4-yl]-2,3-dihydro-1H-quinazolin-4-one] | – | –
21 | < 1000 | 5 to 20 | 5 to 20 | [2H]C([2H])([2H])Oc1ccc(-c2n[nH]nc2C2NC(=O)c3cccc(C)c3N2)cc1 (stereo not shown) [Example 77] | – | –
22 | 1000 to 10000 | 5 to 20 | < 5 | Cc1cccc2c1NC(c1n[nH]nc1-c1ccc(OCC(F)F)cc1)NC2=O (stereo not shown) [Example 78, 2-[4-[4-(2,2-Difluoroethoxy)phenyl]-2H-1,2,3-triazol-5-yl]-8-methyl-2,3-dihydro-1H-quinazolin-4-one] | – | –
23 | < 1000 | 5 to 20 | 5 to 20 | CCOc1ccc(-c2n[nH]nc2C2NC(=O)c3cccc(CC)c3N2)cc1 (stereo not shown) [Example 80, 2-[5-(4-Ethoxyphenyl)-2H-1,2,3-triazol-4-yl]-8-ethyl-2,3-dihydro-1H-quinazolin-4-one] | – | –
